Assay results from PMC8722715 (Frontiers in Cell and Developmental Biology, 2021).
pIC50: −log10 of the molar value.

Legend:
hNaV1.7 channel = target: T1, hNaV1.7 channel (Homo sapiens, UniProt Q15858); assay: Automated patch-clamp block of hNaV1.7 peak Na+ current in CHO cells; type: cell-based; details: for pIC50: CHO cells stably expressing hNaV1.7, SyncroPatch 384 PE whole-cell, holding -100 mV, -10 mV test pulse 50 ms every 5 s, room temperature 18-22°C, 0.3% BSA, steady state or end of 15-min application, mean, S.E.M. and n cells; for hNaV1.7 IC50 versus WT: ratio of analogue mean IC50 to HwTx-IV WT mean IC50 on hNaV1.7
T1 construct: expressed in transfected cells
Description: (§1) CHO cells stably expressing the hNaV1.7 channel subtype were cultured in Dulbecco’s Modified Eagle’s Medium F-12 (DMEM/F12) supplemented with 10% fetal bovine serum, 2 mM glutamine, 200 μg/ml hygromycine B, 10 U/ml penicillin and 10 μg/ml streptomycin (Gibco, Grand Island, NY). HEK-293 cells stably expressing the hNaV1.6 channel subtype were cultured in Dulbecco’s Modified Eagle’s Medium (DMEM) supplemented with 10% fetal calf serum, 1 mM pyruvic acid, 4.5 g/L glucose, 2 mM glutamine, 800 μg/ml G418, 10 U/ml penicillin and 10 μg/ml streptomycin (Gibco, Grand Island, NY). All cell lines were incubated at 37°C in a 5% CO2 atmosphere. For electrophysiological recordings, cells were detached with trypsin, and floating single cells were diluted (∼300,000 cells/ml) in an extracellular solution containing (in mM): 140 NaCl, 4 KCl, 2 CaCl2, 1 MgCl2, 5 glucose and 10 HEPES (pH 7.4, osmolarity 298 mOsm), that was used throughout the experiments.
HwTx-IV analogues were investigated on CHO cells expressing hNav1.7 channel and HEK-293 cells expressing hNaV1.6 channel using the automated patch-clamp system from Nanion (SyncroPatch 384 PE; München, Germany). Chips with single-hole and high-resistance (∼6–7 MΩ) were used for both cell lines. Voltage pulses and whole-cell recordings were achieved using the PatchControl384 v1.5.2 software (Nanion) and the Biomek v1.0 interface (Beckman Coulter). Prior to recordings, dissociated cells were shaken at 200 RPM in a cell hotel reservoir at 10°C. After cell catching, sealing, whole-cell formation, liquid application, recording, and data acquisition were all performed sequentially and automatically. The intracellular solution contained (in mM): 110 CsF, 10 CsCl, 10 NaCl, 1 MgCl2, 1 CaCl2, 10 EGTA and 10 HEPES (pH 7.2, osmolarity 280 mOsm), and the extracellular solution was as described above. Whole-cell experiments were done at −100 mV holding potential and at room temperature (18–22°C), while currents triggered at either −10 or 0 mV test potential were sampled at 20 kHz. Stimulation frequency was set at 0.2 Hz. Each HwTx-IV analogue was prepared at various concentrations in the extracellular solution, itself supplemented with 0.3% of bovine serum albumin (BSA), also added in the control solution. […] Compound solutions were diluted 3 times in the patch-clamp recording well by adding 30–60 μl external solution, to reach the final reported concentration and the test volume of 90 μl. For establishing dose-response curves, the compounds were tested at a test potential of either −10 or 0 mV for 50 ms with a pulse every 5 s. Percentages of current inhibition were measured at steady-state of blockage or at the end of a 15-min application time.

hNaV1.6 channel = target: T2, hNaV1.6 channel (Homo sapiens, UniProt Q9UQD0); assay: Automated patch-clamp block of hNaV1.6 peak Na+ current in HEK-293 cells; type: cell-based; details: for pIC50: HEK-293 cells stably expressing hNaV1.6, SyncroPatch 384 PE whole-cell, holding -100 mV, 0 mV test pulse 50 ms every 5 s, room temperature 18-22°C, 0.3% BSA, steady state or end of 15-min application, mean, S.E.M. and n cells; for hNaV1.6 IC50 versus WT: ratio of analogue mean IC50 to HwTx-IV WT mean IC50 on hNaV1.6
T2 construct: expressed in transfected cells
Description: as §1
HwTx-IV analogues were investigated on CHO cells expressing hNav1.7 channel and HEK-293 cells expressing hNaV1.6 channel using the automated patch-clamp system from Nanion (SyncroPatch 384 PE; München, Germany). Chips with single-hole and high-resistance (∼6–7 MΩ) were used for both cell lines. Voltage pulses and whole-cell recordings were achieved using the PatchControl384 v1.5.2 software (Nanion) and the Biomek v1.0 interface (Beckman Coulter). Prior to recordings, dissociated cells were shaken at 200 RPM in a cell hotel reservoir at 10°C. After cell catching, sealing, whole-cell formation, liquid application, recording, and data acquisition were all performed sequentially and automatically. The intracellular solution contained (in mM): 110 CsF, 10 CsCl, 10 NaCl, 1 MgCl2, 1 CaCl2, 10 EGTA and 10 HEPES (pH 7.2, osmolarity 280 mOsm), and the extracellular solution was as described above. Whole-cell experiments were done at −100 mV holding potential and at room temperature (18–22°C), while currents triggered at either −10 or 0 mV test potential were sampled at 20 kHz. Stimulation frequency was set at 0.2 Hz. Each HwTx-IV analogue was prepared at various concentrations in the extracellular solution, itself supplemented with 0.3% of bovine serum albumin (BSA), also added in the control solution. The peptides were distributed in 384-well microplates according to the number of compounds to be tested (generally four), the concentration range defined from the IC50 of wild-type HwTx-IV, and the number of cells desired for each experimental condition. Compound solutions were diluted 3 times in the patch-clamp recording well by adding 30–60 μl external solution, to reach the final reported concentration and the test volume of 90 μl. For establishing dose-response curves, the compounds were tested at a test potential of either −10 or 0 mV for 50 ms with a pulse every 5 s. Percentages of current inhibition were measured at steady-state of blockage or at the end of a 15-min application time.

T2 sequence (Q9UQD0 whole entry): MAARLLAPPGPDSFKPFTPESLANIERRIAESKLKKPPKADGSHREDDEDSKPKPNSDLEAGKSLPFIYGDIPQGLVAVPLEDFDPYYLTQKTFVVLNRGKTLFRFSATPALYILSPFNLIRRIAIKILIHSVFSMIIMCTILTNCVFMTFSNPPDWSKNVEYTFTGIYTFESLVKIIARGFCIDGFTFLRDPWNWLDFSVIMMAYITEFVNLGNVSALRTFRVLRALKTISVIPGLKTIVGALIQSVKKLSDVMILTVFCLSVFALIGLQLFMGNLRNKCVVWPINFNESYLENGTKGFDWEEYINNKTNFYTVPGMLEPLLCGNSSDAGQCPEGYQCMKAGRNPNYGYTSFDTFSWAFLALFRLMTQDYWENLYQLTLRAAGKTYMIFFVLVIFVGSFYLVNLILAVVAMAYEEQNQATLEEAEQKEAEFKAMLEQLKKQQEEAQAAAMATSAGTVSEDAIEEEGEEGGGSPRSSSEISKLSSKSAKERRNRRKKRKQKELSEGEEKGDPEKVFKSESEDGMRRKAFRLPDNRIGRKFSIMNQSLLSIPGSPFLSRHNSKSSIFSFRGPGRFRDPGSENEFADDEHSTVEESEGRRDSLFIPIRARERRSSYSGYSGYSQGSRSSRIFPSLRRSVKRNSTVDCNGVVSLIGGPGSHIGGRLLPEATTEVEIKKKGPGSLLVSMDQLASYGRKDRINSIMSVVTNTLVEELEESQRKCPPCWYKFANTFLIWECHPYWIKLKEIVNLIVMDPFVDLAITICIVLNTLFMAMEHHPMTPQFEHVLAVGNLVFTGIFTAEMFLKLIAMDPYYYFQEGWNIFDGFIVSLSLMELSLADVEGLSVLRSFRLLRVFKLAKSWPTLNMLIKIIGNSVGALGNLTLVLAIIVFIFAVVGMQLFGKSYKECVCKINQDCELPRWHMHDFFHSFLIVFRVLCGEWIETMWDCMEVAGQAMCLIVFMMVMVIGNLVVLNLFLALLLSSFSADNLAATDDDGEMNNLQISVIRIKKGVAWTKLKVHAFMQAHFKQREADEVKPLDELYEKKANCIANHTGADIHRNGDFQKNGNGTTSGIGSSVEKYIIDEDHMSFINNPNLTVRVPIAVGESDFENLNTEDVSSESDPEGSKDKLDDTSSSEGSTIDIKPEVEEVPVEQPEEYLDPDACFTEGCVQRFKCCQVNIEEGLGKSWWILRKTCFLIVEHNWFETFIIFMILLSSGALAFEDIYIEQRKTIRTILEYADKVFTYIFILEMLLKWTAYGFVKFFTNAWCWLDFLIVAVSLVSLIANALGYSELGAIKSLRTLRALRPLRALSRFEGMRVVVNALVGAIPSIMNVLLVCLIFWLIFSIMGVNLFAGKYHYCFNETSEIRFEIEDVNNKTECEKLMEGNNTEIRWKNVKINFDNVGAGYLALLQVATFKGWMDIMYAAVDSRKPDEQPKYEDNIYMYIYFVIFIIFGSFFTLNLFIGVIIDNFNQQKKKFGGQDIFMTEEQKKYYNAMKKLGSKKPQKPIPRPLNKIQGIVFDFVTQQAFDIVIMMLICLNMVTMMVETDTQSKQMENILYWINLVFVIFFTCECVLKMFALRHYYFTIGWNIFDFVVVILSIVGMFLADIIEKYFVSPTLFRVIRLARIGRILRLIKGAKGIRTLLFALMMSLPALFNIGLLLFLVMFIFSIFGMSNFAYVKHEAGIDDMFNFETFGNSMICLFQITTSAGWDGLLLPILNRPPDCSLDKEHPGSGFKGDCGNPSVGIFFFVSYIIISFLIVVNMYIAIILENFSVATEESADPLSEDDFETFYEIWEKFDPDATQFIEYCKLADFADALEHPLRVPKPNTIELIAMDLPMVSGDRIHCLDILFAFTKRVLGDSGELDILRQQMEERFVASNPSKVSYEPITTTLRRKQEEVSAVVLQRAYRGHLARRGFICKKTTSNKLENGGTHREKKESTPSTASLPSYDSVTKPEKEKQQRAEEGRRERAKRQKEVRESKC
T1 sequence (Q15858 whole entry): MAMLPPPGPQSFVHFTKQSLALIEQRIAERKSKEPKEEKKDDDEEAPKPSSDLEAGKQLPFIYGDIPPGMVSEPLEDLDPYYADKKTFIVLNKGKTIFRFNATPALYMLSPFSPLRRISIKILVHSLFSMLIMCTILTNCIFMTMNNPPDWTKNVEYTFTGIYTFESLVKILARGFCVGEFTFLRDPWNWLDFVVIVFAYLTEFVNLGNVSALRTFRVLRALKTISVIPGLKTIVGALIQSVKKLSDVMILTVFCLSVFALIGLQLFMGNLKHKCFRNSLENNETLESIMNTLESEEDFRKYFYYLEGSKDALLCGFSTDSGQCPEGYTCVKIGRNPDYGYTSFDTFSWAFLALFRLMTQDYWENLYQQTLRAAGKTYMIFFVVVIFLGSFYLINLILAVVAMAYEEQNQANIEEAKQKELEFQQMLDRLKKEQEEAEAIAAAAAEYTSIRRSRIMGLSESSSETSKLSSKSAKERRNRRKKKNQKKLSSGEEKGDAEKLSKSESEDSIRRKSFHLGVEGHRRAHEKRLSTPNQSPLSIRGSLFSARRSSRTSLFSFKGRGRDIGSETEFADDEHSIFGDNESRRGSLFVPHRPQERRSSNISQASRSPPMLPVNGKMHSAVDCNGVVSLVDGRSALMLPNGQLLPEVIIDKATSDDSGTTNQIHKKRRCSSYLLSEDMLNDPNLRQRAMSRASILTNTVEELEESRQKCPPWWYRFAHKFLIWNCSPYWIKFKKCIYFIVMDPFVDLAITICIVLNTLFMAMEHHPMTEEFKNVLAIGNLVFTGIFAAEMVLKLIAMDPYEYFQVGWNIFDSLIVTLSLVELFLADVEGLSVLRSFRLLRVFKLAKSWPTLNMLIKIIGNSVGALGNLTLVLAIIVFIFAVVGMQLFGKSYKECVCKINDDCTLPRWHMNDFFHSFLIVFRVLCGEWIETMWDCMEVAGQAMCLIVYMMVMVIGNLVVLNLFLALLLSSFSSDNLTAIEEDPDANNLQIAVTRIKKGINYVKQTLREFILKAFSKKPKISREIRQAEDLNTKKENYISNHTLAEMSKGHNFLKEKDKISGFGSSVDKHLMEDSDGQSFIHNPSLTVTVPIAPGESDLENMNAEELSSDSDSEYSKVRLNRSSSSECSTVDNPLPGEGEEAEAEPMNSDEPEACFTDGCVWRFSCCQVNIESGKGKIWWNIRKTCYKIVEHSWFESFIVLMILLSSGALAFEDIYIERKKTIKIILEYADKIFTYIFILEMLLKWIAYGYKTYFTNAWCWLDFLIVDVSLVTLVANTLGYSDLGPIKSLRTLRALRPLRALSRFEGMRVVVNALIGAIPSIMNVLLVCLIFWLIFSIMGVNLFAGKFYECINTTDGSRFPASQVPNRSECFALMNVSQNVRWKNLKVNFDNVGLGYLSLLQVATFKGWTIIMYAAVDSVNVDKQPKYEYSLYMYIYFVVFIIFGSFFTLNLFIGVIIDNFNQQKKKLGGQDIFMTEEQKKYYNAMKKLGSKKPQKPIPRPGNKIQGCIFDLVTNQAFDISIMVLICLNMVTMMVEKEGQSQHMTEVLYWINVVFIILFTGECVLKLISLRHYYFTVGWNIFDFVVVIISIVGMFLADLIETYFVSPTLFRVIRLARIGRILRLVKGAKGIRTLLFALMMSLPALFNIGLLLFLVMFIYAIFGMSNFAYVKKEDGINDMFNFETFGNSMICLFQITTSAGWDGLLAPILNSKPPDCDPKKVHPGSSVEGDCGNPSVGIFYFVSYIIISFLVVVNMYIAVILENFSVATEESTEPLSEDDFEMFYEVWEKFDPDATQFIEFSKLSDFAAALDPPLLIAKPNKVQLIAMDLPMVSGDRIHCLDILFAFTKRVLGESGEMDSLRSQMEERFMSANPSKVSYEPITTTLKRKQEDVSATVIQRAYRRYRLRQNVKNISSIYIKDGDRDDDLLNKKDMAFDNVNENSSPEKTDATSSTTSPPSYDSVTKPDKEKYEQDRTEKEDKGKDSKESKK

CC[C@H](C)[C@H](NC(=O)[C@H](CCC(N)=O)NC(=O)[C@H](Cc1ccc(O)cc1)NC(=O)[C@H](CCCCN)NC(=O)[C@@H]1CSSC[C@@H]2NC(=O)[C@H](CCC(N)=O)NC(=O)[C@H](CC(=O)O)NC(=O)[C@H](CC(N)=O)NC(=O)[C@H](CO)NC(=O)[C@@H]3CCCN3C(=O)[C@H](CC(N)=O)NC(=O)[C@@H]3CSSC[C@H](NC(=O)[C@H](C(C)C)NC(=O)[C@H](CC(C)C)NC(=O)[C@H](CCCCN)NC(=O)[C@H](CO)NC(=O)[C@H](CO)NC(=O)[C@H](CCCCN)NC(=O)[C@H](CSSC[C@H](NC(=O)[C@@H](N)CCC(=O)O)C(=O)N[C@@H](CC(C)C)C(=O)N[C@@H](CCC(=O)O)C(=O)N[C@@H]([C@@H](C)CC)C(=O)N[C@@H](Cc4ccccc4)C(=O)N[C@@H](CCCCN)C(=O)N[C@@H](C)C(=O)N3)NC2=O)C(=O)N[C@@H](CO)C(=O)N[C@@H](CCCNC(=N)N)C(=O)N[C@@H](CCCCN)C(=O)N[C@@H]([C@@H](C)O)C(=O)N[C@@H](CCCNC(=N)N)C(=O)N[C@@H](Cc2c[nH]c3ccccc23)C(=O)N1)C(=O)O [HwTx-IV CterCOOH]
pIC50 (hNaV1.7 channel): 6.75 | hNaV1.7 IC50 versus WT (hNaV1.7 channel): 17.81 | pIC50 (hNaV1.6 channel): 5.91 | hNaV1.6 IC50 versus WT (hNaV1.6 channel): 5.43

CC[C@H](C)[C@H](NC(=O)[C@H](CCC(N)=O)NC(=O)[C@H](Cc1ccc(O)cc1)NC(=O)[C@H](CCCCN)NC(=O)[C@@H]1CSSC[C@@H]2NC(=O)[C@H](CCC(N)=O)NC(=O)[C@H](CC(=O)O)NC(=O)[C@H](CC(N)=O)NC(=O)[C@H](CO)NC(=O)[C@@H]3CCCN3C(=O)[C@H](CC(N)=O)NC(=O)[C@@H]3CSSC[C@H](NC(=O)[C@H](C(C)C)NC(=O)[C@H](CC(C)C)NC(=O)[C@H](CCCCN)NC(=O)[C@H](CO)NC(=O)[C@H](CO)NC(=O)[C@H](C)NC(=O)[C@H](CSSC[C@H](NC(=O)CN)C(=O)N[C@@H](CC(C)C)C(=O)NCC(=O)N[C@@H]([C@@H](C)CC)C(=O)N[C@@H](Cc4ccccc4)C(=O)N[C@@H](CCCCN)C(=O)N[C@@H](C)C(=O)N3)NC2=O)C(=O)N[C@@H](CO)C(=O)N[C@@H](CCCNC(=N)N)C(=O)N[C@@H](CCCCN)C(=O)N[C@@H]([C@@H](C)O)C(=O)N[C@@H](CCCNC(=N)N)C(=O)N[C@@H](Cc2c[nH]c3ccccc23)C(=O)N1)C(N)=O [HwTx-IV E^1G/E^4G/K^18A]
pIC50 (hNaV1.7 channel): 9.10 | hNaV1.7 IC50 versus WT (hNaV1.7 channel): 0.08 | pIC50 (hNaV1.6 channel): 8.31 | hNaV1.6 IC50 versus WT (hNaV1.6 channel): 0.02

CC[C@H](C)[C@H](NC(=O)[C@H](CCC(N)=O)NC(=O)[C@H](Cc1ccc(O)cc1)NC(=O)[C@H](CCCCN)NC(=O)[C@@H]1CSSC[C@@H]2NC(=O)[C@H](CCC(N)=O)NC(=O)[C@H](CC(=O)O)NC(=O)[C@H](CC(N)=O)NC(=O)[C@H](CO)NC(=O)[C@@H]3CCCN3C(=O)[C@H](CC(N)=O)NC(=O)[C@@H]3CSSC[C@H](NC(=O)[C@H](C(C)C)NC(=O)[C@H](CC(C)C)NC(=O)[C@H](CCCCN)NC(=O)[C@H](CO)NC(=O)[C@H](CO)NC(=O)[C@H](CCCCN)NC(=O)[C@H](CSSC[C@H](NC(=O)CN)C(=O)N[C@@H](CC(C)C)C(=O)NCC(=O)N[C@@H]([C@@H](C)CC)C(=O)N[C@@H](Cc4ccccc4)C(=O)N[C@@H](CCCCN)C(=O)N[C@@H](C)C(=O)N3)NC2=O)C(=O)N[C@@H](CO)C(=O)N[C@@H](CCCNC(=N)N)C(=O)N[C@@H](CCCCN)C(=O)N[C@@H]([C@@H](C)O)C(=O)N[C@@H](CCCNC(=N)N)C(=O)N[C@@H](Cc2c[nH]c3ccccc23)C(=O)N1)C(N)=O [HwTx-IV E^1G/E^4G]
pIC50 (hNaV1.7 channel): 8.70 | hNaV1.7/hNaV1.6 selectivity ratio (hNaV1.7 channel; inverse ratio of the mean IC50 values on hNaV1.7 (CHO) and hNaV1.6 (HEK-293) of Table 1): less than 2 | hNaV1.7 IC50 versus WT (hNaV1.7 channel): 0.20 | pIC50 (hNaV1.6 channel): 8.43 | hNaV1.6 IC50 versus WT (hNaV1.6 channel): 0.02

CC[C@H](C)[C@H](NC(=O)[C@H](CCC(N)=O)NC(=O)[C@H](Cc1ccc(O)cc1)NC(=O)[C@H](CCCCN)NC(=O)[C@@H]1CSSC[C@@H]2NC(=O)[C@H](CCC(N)=O)NC(=O)[C@H](CC(=O)O)NC(=O)[C@H](CC(N)=O)NC(=O)[C@H](CO)NC(=O)[C@@H]3CCCN3C(=O)[C@H](CC(N)=O)NC(=O)[C@@H]3CSSC[C@H](NC(=O)[C@H](C(C)C)NC(=O)[C@H](CC(C)C)NC(=O)[C@H](CCCCN)NC(=O)[C@H](CO)NC(=O)[C@H](CO)NC(=O)[C@H](CCCCN)NC(=O)[C@H](CSSC[C@H](NC(=O)[C@@H](N)CCC(=O)O)C(=O)N[C@@H](CC(C)C)C(=O)N[C@@H](CCC(=O)O)C(=O)N[C@@H]([C@@H](C)CC)C(=O)N[C@@H](Cc4ccccc4)C(=O)N[C@@H](CCCCN)C(=O)N[C@@H](C)C(=O)N3)NC2=O)C(=O)N[C@@H](CO)C(=O)N[C@@H](CCCNC(=N)N)C(=O)N[C@@H](CCCCN)C(=O)N[C@@H](Cc2c[nH]c3ccccc23)C(=O)N[C@@H](CCCNC(=N)N)C(=O)N[C@@H](Cc2c[nH]c3ccccc23)C(=O)N1)C(N)=O [HwTx-IV T^28W]
pIC50 (hNaV1.7 channel): 6.94 | hNaV1.7 IC50 versus WT (hNaV1.7 channel): 11.53
